Experiments:
Type in all cases: biochemical
Recombinant human TRKA = target: T1, Recombinant human TRKA (Homo sapiens, UniProt P04629); assay: In vitro activity test on TRKA kinase (HTRF KinEASE TK); settings: 14.68 μM ATP, 40 min
T1 construct: purchased Carna Biosciences
Procedure: (§1) Biological Test Example 1 In Vitro Activity Test on TRKA, TRKB, TRKC Kinase
(§2) Recombinant human TRKA, TRKB, TRKC proteins were purchased from Carna Biosciences. HTRF KinEASE TK kit was purchased from Cisbio Bioassays. Synergy Neo 2 of Biotek was used to read the plate.
(§3) The tested compound was subjected to 3-fold serial dilution to reach a final concentration of 1 μM to 0.05 nM (10 concentrations), duplicates for each concentration; and the DMSO concentration in the detection reaction was 1%.
0.2 ng/μL TRKA protein kinase, 1 μM TK Substrate-biotin polypeptide substrate, 14.68 μM ATP, 1× enzymatic buffer, 5 mM MgCl2, and 1 mM DTT. The detection plate was White Proxiplate384-Plus plate (PerkinElmer), and incubated at room temperature for 40 min, and the assay volume was 10 μL.
(§4) 10 μL of detection reagent was added to the plate (containing 0.125 μM SA-XL665 and 5 μL 1×TK-Antibody) and incubated overnight at room temperature, and Synergy Neo 2 was used to read the plate.
(§5) The 665/620 Ratio was converted according to the following formula into inhibition rate (%)=(1−Ratiotest/Ratiomax)×100%. Ratiomax was a positive control without tested compound, and Ratiotest was the value of each concentration of different compounds. IC50 (nM) data was obtained by 4 parameter curve fitting (see Table 1).

Recombinant human TRKB = target: T2, Recombinant human TRKB (Homo sapiens, UniProt Q16620); assay: In vitro activity test on TRKB kinase (HTRF KinEASE TK); settings: 4.77 μM ATP, 50 min
T2 construct: purchased Carna Biosciences
Procedure: as §1, §2, §3
0.037 ng/μL TRKB protein kinase, 1 μM TK Substrate-biotin polypeptide substrate, 4.77 μM ATP, 1× enzymatic buffer, 5 mM MgCl2, and 1 mM DTT. The detection plate was White Proxiplate 384-Plus plate (PerkinElmer), and incubated at room temperature for 50 min, and the assay volume was 10 μL.
as §4, §5

[1] = target: T3, recombinant human TRKA (G595R) (Homo sapiens, UniProt P04629, G595R); assay: In vitro activity test on mutant TRKA (G595R) (HTRF KinEASE TK); settings: 4.5 μM ATP, 30 min
T3 construct: purchased SignalChem
Procedure: (§6) Biological Test Example 2 In Vitro Activity Test on Mutant TRKA (G595R), TRKA (G667C) and TRKC (G623R)
(§7) The recombinant human TRKA (G595R), TRKA (G667C) and TRKC (G623R) proteins were purchased from SignalChem. HTRF kinEASE TK kit was purchased from CisbioBioassays. Synergy Neo 2 of Biotek was used to read the plate.
(§8) The tested compound was subjected to 4-fold serial dilution to reach a final concentration of 1 μM to 0.004 nM (10 concentrates), duplicates for each concentration; and 1% DMSO was present in the detection reaction.
0.12 ng/μL TRKA (G595R) kinase, 1 μM TK Substrate-biotin polypeptide substrate, 4.5 μM ATP, 1× enzymatic buffer, 5 mM MgCl2, and 1 mm DTT. The detection plate was White Proxiplate384-Plus plate (PerkinElmer), and incubated at room temperature for 30 min, and the assay volume was 10 μL.
as §4
(§9) The value of 665/620 Ratio minus the value of negative control wells without enzyme, then the obtained value was converted according to the following formula into inhibition rate (%)=(1−Ratiotest/Ratiomax)×100%. Ratiomax was a positive control without tested compound, and Ratiotest was the value of each concentration of different compounds. IC50 (nM) data was obtained by 4 parameter curve fitting (see Table 1).

[2] = target: T4, recombinant human TRKA (G667C) (Homo sapiens, UniProt P04629, G667C); assay: In vitro activity test on mutant TRKA (G667C) (HTRF KinEASE TK); settings: 5.5 μM ATP, 30 min
T4 construct: purchased SignalChem
Procedure: as §6, §7, §8
0.026 ng/μL TRKA (G667C) kinase, 1 μM TK Substrate-biotin polypeptide substrate, 5.5 μm ATP, 1× enzymatic buffer, 5 mM MgCl2, and 1 mM DTT. The detection plate was White Proxiplate 384-Plus plate (PerkinElmer), and incubated at room temperature for 30 min, the assay volume was 10 μL.
as §4, §9

Recombinant human TRKC = target: T5, Recombinant human TRKC (Homo sapiens, UniProt Q16288); assay: In vitro activity test on TRKC kinase (HTRF KinEASE TK); settings: 25.64 μM ATP, 40 min
T5 construct: purchased Carna Biosciences
Procedure: as §1, §2, §3
0.037 ng/μL TRKC protein kinase, 1 μM TK Substrate-biotin polypeptide substrate, 25.64 μM ATP, 1× enzymatic buffer, 5 mM MgCl2, and 1 mM DTT. The detection plate was White Proxiplate 384-Plus plate (PerkinElmer), and incubated at room temperature for 40 min, and the assay volume was 10 μL.
as §4, §5

T1 sequence (P04629 33-796): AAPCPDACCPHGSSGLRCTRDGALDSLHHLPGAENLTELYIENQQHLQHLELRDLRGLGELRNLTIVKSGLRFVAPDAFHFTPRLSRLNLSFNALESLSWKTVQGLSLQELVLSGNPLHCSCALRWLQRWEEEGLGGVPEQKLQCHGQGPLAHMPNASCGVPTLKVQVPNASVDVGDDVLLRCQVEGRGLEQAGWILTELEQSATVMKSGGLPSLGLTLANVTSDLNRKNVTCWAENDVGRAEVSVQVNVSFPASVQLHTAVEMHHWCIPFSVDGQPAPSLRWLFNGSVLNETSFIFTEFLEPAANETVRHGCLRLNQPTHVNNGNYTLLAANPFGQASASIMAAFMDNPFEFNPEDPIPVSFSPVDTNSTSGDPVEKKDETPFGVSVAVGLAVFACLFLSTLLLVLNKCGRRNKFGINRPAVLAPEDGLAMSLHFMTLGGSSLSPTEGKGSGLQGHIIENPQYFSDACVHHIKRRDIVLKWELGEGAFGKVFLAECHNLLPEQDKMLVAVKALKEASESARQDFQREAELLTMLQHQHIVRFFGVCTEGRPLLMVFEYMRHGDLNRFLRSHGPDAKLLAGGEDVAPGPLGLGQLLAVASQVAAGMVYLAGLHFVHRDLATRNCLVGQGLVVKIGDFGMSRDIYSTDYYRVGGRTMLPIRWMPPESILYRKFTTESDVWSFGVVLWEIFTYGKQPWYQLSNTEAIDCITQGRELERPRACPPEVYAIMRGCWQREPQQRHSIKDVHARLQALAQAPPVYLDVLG
T2 sequence (Q16620 32-822): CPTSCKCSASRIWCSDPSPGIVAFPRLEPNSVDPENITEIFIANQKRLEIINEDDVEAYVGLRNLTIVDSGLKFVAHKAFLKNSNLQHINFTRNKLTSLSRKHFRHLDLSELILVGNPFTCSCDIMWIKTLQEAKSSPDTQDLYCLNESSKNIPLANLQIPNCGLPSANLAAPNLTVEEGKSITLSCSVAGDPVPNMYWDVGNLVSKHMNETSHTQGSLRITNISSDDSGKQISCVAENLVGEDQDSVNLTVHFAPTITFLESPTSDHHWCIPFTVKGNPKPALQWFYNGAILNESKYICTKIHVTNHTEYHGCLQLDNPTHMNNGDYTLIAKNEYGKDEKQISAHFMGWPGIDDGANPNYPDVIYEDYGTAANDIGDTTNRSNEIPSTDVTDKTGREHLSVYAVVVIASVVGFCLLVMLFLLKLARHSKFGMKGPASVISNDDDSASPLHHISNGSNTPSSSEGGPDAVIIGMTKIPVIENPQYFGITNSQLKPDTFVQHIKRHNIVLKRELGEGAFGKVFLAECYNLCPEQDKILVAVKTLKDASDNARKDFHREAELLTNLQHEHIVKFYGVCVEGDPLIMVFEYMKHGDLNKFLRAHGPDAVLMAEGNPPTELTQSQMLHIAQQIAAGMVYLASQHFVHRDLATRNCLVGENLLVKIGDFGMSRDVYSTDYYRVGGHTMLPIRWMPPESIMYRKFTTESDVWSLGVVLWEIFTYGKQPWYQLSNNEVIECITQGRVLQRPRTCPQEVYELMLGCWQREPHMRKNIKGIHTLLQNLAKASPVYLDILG
T5 sequence (Q16288 32-839): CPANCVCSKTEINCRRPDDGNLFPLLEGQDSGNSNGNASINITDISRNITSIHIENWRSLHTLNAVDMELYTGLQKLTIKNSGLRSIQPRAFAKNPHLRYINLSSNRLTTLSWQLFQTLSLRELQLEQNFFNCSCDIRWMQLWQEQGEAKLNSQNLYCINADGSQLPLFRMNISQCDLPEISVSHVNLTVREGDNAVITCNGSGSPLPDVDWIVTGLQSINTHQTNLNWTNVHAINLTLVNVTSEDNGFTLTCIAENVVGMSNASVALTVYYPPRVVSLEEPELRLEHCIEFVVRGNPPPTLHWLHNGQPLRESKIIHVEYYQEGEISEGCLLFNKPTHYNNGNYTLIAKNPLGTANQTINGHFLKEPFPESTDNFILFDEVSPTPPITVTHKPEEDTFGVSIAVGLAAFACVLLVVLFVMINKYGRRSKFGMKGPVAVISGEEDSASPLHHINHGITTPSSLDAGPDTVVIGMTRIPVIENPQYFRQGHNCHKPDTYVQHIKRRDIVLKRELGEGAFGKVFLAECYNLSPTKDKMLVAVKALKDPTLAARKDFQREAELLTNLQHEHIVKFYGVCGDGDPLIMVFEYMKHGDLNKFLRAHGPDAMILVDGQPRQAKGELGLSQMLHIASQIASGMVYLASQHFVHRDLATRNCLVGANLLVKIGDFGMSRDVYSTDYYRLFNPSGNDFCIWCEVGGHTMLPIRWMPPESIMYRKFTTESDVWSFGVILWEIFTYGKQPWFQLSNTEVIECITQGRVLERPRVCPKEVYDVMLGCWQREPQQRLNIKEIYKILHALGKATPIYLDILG
T4 sequence (P04629 33-796 G667C): as the sequence (P04629 33-796) above, with G635C counted along it
T3 sequence (P04629 33-796 G595R): as the sequence (P04629 33-796) above, with G563R counted along it

Work on `OC1CCC(Nc2ccnc3ccc(N4C[C@@H](F)C[C@@H]4c4cc(F)ccc4F)nc23)C1` (stereo partly drawn) [Example 2, 3-((6-((2R,4S)-2-(2,5-difluorophenyl)-4-fluoropyrrolidin-1-yl)-1,5-naphthyridin-4-yl)amino)cyclopentan-1-ol] yielded an IC50 (Recombinant human TRKA) of less than 10 nM, an IC50 (Recombinant human TRKB) of less than 10 nM and an IC50 [1] of less than 10 nM. For the same compound, the IC50 [2] was less than 10 nM and the IC50 (Recombinant human TRKC) was less than 10 nM.
In the case of `NC(=O)c1ccnc2ccc(N3CCC[C@@H]3c3cc(F)ccc3F)nc12` [Example 10, (R)-6-(2-(2,5-difluorophenyl)pyrrolidin-1-yl)-1,5-naphthyridin-4-carboxamide], the IC50 (Recombinant human TRKA) is reported as less than 1 nM, the IC50 (Recombinant human TRKB) is reported as less than 1 nM and the IC50 [1] is reported as less than 1 nM. The IC50 [2] was less than 100 nM and the IC50 (Recombinant human TRKC) was less than 1 nM.
In the case of `Fc1ccc(F)c([C@H]2C[C@H](F)CN2c2ccc3nccc(-c4cnn(C5CCNCC5)c4)c3n2)c1` [Example 11, 2-((2R,4S)-2-(2,5-difluorophenyl)-4-fluoropyrrolidin-1-yl)-8-(1-(piperidin-4-yl)-1H-pyrizol-4-yl)-1,5-naphthyridine], the IC50 (Recombinant human TRKA) is reported as less than 1 nM, the IC50 (Recombinant human TRKB) is reported as less than 1 nM and the IC50 [1] is reported as less than 1 nM. The IC50 [2] was less than 1 nM and the IC50 (Recombinant human TRKC) was less than 1 nM.
Compound `Fc1ccc(F)c([C@H]2C[C@H](F)CN2c2ccc3nccc(-c4cnn(C5CCOCC5)c4)c3n2)c1` [Example 12, 2-((2R,4S)-2-(2,5-difluorophenyl)-4-fluoropyrrolidin-1-yl)-8-(1-(tetrahydro-2H-pyran-4-yl)-1H-pyrazol-4-yl)-1,5-naphthyridine] has an IC50 (Recombinant human TRKA) of less than 1 nM, an IC50 (Recombinant human TRKB) of less than 1 nM and an IC50 [1] of less than 1 nM. The IC50 [2] was less than 1 nM and the IC50 (Recombinant human TRKC) was less than 1 nM.
`CN1CCC(n2cc(-c3ccnc4ccc(N5C[C@@H](F)C[C@@H]5c5cc(F)ccc5F)nc34)cn2)CC1` [Example 13, 2-((2R,4S)-2-(2,5-difluorophenyl)-4-fluoropyrrolidin-1-yl)-8-(1-(1-methylpiperidin-4-yl)-1H-pyrazol-4-yl)-1,5-naphthyridine] showed an IC50 (Recombinant human TRKA) of less than 1 nM, an IC50 (Recombinant human TRKB) of less than 1 nM and an IC50 [1] of less than 1 nM. For the same compound, the IC50 [2] was less than 10 nM and the IC50 (Recombinant human TRKC) was less than 1 nM.
Work on `CC(C)N1CCC(n2cc(-c3ccnc4ccc(N5C[C@@H](F)C[C@@H]5c5cc(F)ccc5F)nc34)cn2)CC1` [Example 14] yielded an IC50 (Recombinant human TRKA) of less than 1 nM, an IC50 (Recombinant human TRKB) of less than 10 nM and an IC50 [1] of less than 1 nM. For the same compound, the IC50 [2] was less than 50 nM and the IC50 (Recombinant human TRKC) was less than 1 nM.
`Fc1ccc(F)c([C@H]2CCCN2c2ccc3nccc(-c4cnn(C5CCNCC5)c4F)c3n2)c1` [Example 15, (R)-2-(2-(2,5-Difluorophenyl)pyrrolidin-1-yl)-8-(5-fluoro-1-(piperidin-4-yl)-1H-pyrazole-4-yl)-1,5-naphthyridine] gave an IC50 (Recombinant human TRKA) of less than 1 nM, an IC50 (Recombinant human TRKB) of less than 1 nM and an IC50 [1] of less than 1 nM. For the same compound, the IC50 [2] was less than 10 nM and the IC50 (Recombinant human TRKC) was less than 1 nM.
`CC1(C)CC(n2cc(-c3ccnc4ccc(N5CCC[C@@H]5c5cc(F)ccc5F)nc34)cn2)CCN1` (stereo partly drawn) [Example 17, 2-((R)-2-(2,5-difluorophenyl)pyrrolidin-1-yl)-8-(1-(2,2-dimethylpiperidin-4-yl)-1H-pyrazol-4-yl)-1,5-naphthyridine] gave an IC50 (Recombinant human TRKA) of less than 1 nM, an IC50 (Recombinant human TRKB) of less than 10 nM and an IC50 [1] of less than 10 nM. It also gave an IC50 [2] of less than 50 nM and an IC50 (Recombinant human TRKC) of less than 10 nM.
In the case of `CC1(C)CC(n2cc(-c3ccnc4ccc(N5C[C@@H](F)C[C@@H]5c5cc(F)ccc5F)nc34)cn2)CCN1` (stereo partly drawn) [Example 18, 2-((2R,4S)-2-(2,5-difluorophenyl)-4-fluoropyrrolidin-1-yl)-8-(1-(2,2-dimethylpiperidin-4-yl)-1H-pyrazol-4-yl)-1,5-naphthyridine], the IC50 (Recombinant human TRKA) is reported as less than 1 nM, the IC50 (Recombinant human TRKB) is reported as less than 1 nM and the IC50 [1] is reported as less than 10 nM. It also gave an IC50 [2] of less than 10 nM and an IC50 (Recombinant human TRKC) of less than 1 nM.
In the case of `Fc1ccc(F)c([C@H]2CCCN2c2ccc3ncc(F)c(-c4cnn(C5CCNCC5)c4)c3n2)c1` [Example 21], the IC50 (Recombinant human TRKA) is reported as less than 1 nM, the IC50 (Recombinant human TRKB) is reported as less than 1 nM and the IC50 [1] is reported as less than 1 nM. For the same compound, the IC50 [2] was less than 10 nM and the IC50 (Recombinant human TRKC) was less than 1 nM.
`O=C(O)[C@H]1CCN(c2ncc(-c3ncnc4ccc(N5C[C@@H](F)C[C@@H]5c5cc(F)ccc5F)nc34)cn2)C1` [Example 87, (S)-1-(5-(6-((2R,4S)-2-(2,5-difluorophenyl)-4-fluoropyrrolidin-1-yl)pyrido[3,2-d]primidin-4-yl)pyrimidin-2-yl)pyrrolidin-3-carboxylic acid] showed an IC50 (Recombinant human TRKA) of less than 1 nM, an IC50 (Recombinant human TRKB) of less than 1 nM and an IC50 [1] of less than 1 nM. The IC50 (Recombinant human TRKC) was less than 1 nM.
`O=C(O)[C@@H]1CCN(c2ncc(-c3ncnc4ccc(N5C[C@@H](F)C[C@@H]5c5cc(F)ccc5F)nc34)cn2)C1` [Example 88, (R)-1-(5-(6-((2R,4S)-2-(2,5-difluorophenyl)-4-fluoropyrrolidin-1-yl)pyrido[3,2-d]primidin-4-yl)pyrimidin-2-yl)pyrrolidin-3-carboxylic acid] showed an IC50 (Recombinant human TRKA) of less than 1 nM, an IC50 (Recombinant human TRKB) of less than 1 nM and an IC50 [1] of less than 1 nM. It also gave an IC50 (Recombinant human TRKC) of less than 1 nM.
`Fc1ccc(Cl)c([C@H]2CCCN2c2ccc3ncc(F)c(-c4cnn(C5CCNCC5)c4)c3n2)c1` [Example 89, (R)-2-(2-(2-Chloro-5-fluorophenyl)pyrrolidin-1-yl)-7-fluoro-8-(1-(piperidin-4-yl)-1H-pyrazol-4-yl)-1,5-naphthyridine] gave an IC50 (Recombinant human TRKA) of less than 1 nM, an IC50 (Recombinant human TRKB) of less than 10 nM and an IC50 [1] of less than 1 nM. For the same compound, the IC50 (Recombinant human TRKC) was less than 10 nM.
For `Fc1cnc(Cl)c([C@H]2CCCN2c2ccc3ncc(F)c(-c4cnn(C5CCNCC5)c4)c3n2)c1` [Example 90, (R)-2-(2-(2-Chloro-5-fluoropyridin-3-yl)pyrrolidin-1-yl)-7-fluoro-8-(1-(piperidin-4-yl)-1H-pyrazol-4-yl)-1,5-naphthyridine], the IC50 (Recombinant human TRKA) was less than 1 nM, the IC50 (Recombinant human TRKB) was less than 10 nM and the IC50 [1] was less than 1 nM. For the same compound, the IC50 (Recombinant human TRKC) was less than 10 nM.
With `Fc1ccc(F)c([C@H]2C[C@H](F)CN2c2ccc3ncnc(-c4cnc(C5CCNCC5)nc4)c3n2)c1` [Example 91, 6-((2R,4S)-2-(2,5-Difluorophenyl)-4-fluoropyrrolidin-1-yl)-4-(2-(piperidin-4-yl)pyrimidin-5-yl)pyrido[3,2-d]pyrimidine] the IC50 (Recombinant human TRKA) was less than 1 nM, the IC50 (Recombinant human TRKB) was less than 1 nM and the IC50 [1] was less than 10 nM. The IC50 (Recombinant human TRKC) was less than 1 nM.
With `O=C1N(c2ccnc3ccc(N4C[C@@H](F)C[C@@H]4c4cc(F)ccc4F)nc23)CC12CCNCC2` [Example 94, 2-(6-((2R,4S)-2-(2,5-difluorophenyl)-4-fluoropyrrolidin-1-yl)-1,5-naphthyridin-4-yl)-2,7-diazaspiro[3.5] nonane-1-one] the IC50 (Recombinant human TRKA) was less than 1 nM, the IC50 (Recombinant human TRKB) was less than 1 nM and the IC50 [1] was less than 1 nM. For the same compound, the IC50 (Recombinant human TRKC) was less than 1 nM.
With `O=c1n(-c2ccnc3ccc(N4C[C@@H](F)C[C@@H]4c4cc(F)ccc4F)nc23)ccn1C1CCNCC1` [Example 95, 1-(6-((2R,4S)-2-(2,5-difluorophenyl)-4-fluoropyrrolidin-1-yl)-1,5-naphthyridin-4-yl)-3-(piperidin-4-yl)-1,3-dihydro-2H-imidazol-2-one] the IC50 (Recombinant human TRKA) was less than 1 nM, the IC50 (Recombinant human TRKB) was less than 10 nM and the IC50 [1] was less than 1 nM. The IC50 (Recombinant human TRKC) was less than 1 nM.
`O=c1n(-c2ncnc3ccc(N4C[C@@H](F)C[C@@H]4c4cc(F)ccc4F)nc23)ccn1C1CCNCC1` [Example 96, 1-(6-((2R,4S)-2-(2,5-difluorophenyl)-4-fluoropyrrolidin-1-yl)pyrido[3,2-d]pyrimidin-4-yl)-3-(piperidin-4-yl)-1,3-dihydro-2H-imidazol-2-one] was tested, and the IC50 (Recombinant human TRKA) was less than 1 nM, the IC50 (Recombinant human TRKB) was less than 10 nM and the IC50 [1] was less than 10 nM. It also gave an IC50 (Recombinant human TRKC) of less than 10 nM.

From US20220017512A1 (SHANGHAI ENNOVABIO PHARMACEUTICALS CO., LTD., priority 2018, published 2022)
